This passage reports inhibition and IC50 results from patent US7579356B2, “Thia-tetraazaacenaphthylene kinase inhibitors” (Janssen Pharmaceutica NV, priority 2005, dated 2009).

A word on the inhibition: it is the change of the read-out against control, counted positive when it falls. What is called IC50 is the midpoint of a concentration-inhibition curve.

The structures appear in SMILES notation.

What all share (assay type): biochemical
The target in one test is T1, EGFR (Homo sapiens, UniProt P00533).
T1 construct: The intracellular portion of EGFR started at nucleotide 2189 (corresponding to amino acid 667) and ended at the termination codon; made in house; host or cells: Sf9 insect cells (baculovirus)
T1 sequence (P00533 669-1210 limits assumed): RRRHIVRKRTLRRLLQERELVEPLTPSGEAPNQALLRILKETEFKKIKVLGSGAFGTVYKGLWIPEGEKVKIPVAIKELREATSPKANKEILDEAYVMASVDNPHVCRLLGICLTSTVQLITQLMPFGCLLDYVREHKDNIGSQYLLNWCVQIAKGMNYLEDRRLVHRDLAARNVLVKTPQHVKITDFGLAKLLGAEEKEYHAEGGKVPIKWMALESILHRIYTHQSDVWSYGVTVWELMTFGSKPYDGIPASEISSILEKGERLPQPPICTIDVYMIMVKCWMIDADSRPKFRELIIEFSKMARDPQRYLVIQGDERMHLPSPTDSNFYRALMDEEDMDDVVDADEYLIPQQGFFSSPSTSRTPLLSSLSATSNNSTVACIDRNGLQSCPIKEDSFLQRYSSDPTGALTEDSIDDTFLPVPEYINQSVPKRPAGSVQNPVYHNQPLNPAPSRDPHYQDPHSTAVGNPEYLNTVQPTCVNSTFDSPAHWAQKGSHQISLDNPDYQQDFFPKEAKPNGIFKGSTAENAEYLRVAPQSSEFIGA
Nature of the test: EGFR Kinase Assay. Conditions: for inhibition at 2 µM: test concentration of 2 μM, compounds without an IC50, read-out: EGFR inhibition in percent; for IC50: GST-EGFR, ATP 5 μM. Put shortly:
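GST-fused human EGFR intracellular domain (from aa 667), Sf9-expressed, phosphorylated biotinylated polyGluTyr with 5 μM ATP plus γ-33P ATP in Tris pH 8.0, MgCl2, vanadate, 1 mM DTT, 1 h at 30 °C. Streptavidin Flashplate scintillation read; triplicate 16-point half-log series from 200 uM; IC50 from % inhibition vs log concentration, else % inhibition at 2 μM.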

Another test has as its target T2, c-Src kinase (human) (Homo sapiens, UniProt P12931).
T2 construct: purchased Upstate Biotechnology, Lake Placid, N.Y
Nature of the test: c-Src Kinase Assay. Conditions: test concentration of 2 μM; multiple values are separate assay results. The method, then: A mixture of a 10× kinase buffer (80 mM MOPS at pH 7.0, 2 mM EDTA and 100 mM Magnesium Chloride), ATP (5 μM final from a 10 mM stock), a Cdc2 peptide KVEKIGEGTYGVVYK (100 μM final from a 2.5 mM stock), γ-^33P ATP (10 μCl/μL stock) and water (for a total of 20 μL/well) was added to each well of a Streptavidin Flashplate.
Test compound in 100% DMSO (0.5 μL) was added to the appropriate wells. Diluted c-Src kinase (human) (Accession Number SWISS-PROT P12931) (Upstate Biotechnology, Lake Placid, N.Y.) (diluted in a buffer consisting of 20 mM MOPS at pH 7.0, 1 mM EDTA, β-mercaptoethanol (0.1%), Brij-35 (0.01%), glycerol (5%), and 1 mg/mL bovine serum albumin) (2.5 μL) was added to the wells to initiate the reactions. The reaction plates were incubated at 30° C. for 40 min. The reaction was terminated by the addition of a 3% phosphoric acid solution (5 μL). The reaction product (10 μL) was spotted onto a P30 filtermat and washed for 5 minutes in phosphoric acid (75 mM). The wash sequence was repeated two more times, followed with one final wash in methanol. The plates were then dried, sealed and read on the TopCount scintillation counter after adding 30 μL scintillation fluid.
The c-Src inhibition values were derived using the percent inhibition formula provided in Example 164 and are shown as percent in Table 2 at a test concentration of 2 μM. For those compounds with an IC50, the IC50 value in μM is shown in parentheses. For compounds with multiple test values, each value represents a separate assay result.

The target in another test is T3, Lyn kinase (human) (Homo sapiens, UniProt P07948).
T3 construct: purchased Upstate Biotechnology, Lake Placid, N.Y
T3 sequence (P07948 whole entry): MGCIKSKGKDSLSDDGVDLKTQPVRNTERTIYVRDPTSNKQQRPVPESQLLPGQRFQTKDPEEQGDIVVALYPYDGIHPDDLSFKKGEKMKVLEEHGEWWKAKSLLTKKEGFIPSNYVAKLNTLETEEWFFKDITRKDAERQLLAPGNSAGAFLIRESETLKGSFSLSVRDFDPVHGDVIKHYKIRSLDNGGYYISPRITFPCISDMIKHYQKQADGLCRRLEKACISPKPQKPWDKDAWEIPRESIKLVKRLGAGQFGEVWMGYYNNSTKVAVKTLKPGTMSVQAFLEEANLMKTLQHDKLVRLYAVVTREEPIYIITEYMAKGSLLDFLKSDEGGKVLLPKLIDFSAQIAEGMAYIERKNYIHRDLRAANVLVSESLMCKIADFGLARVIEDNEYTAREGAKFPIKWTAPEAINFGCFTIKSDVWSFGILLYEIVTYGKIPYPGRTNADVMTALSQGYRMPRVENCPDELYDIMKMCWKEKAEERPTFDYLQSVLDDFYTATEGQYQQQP
The test can be described thus: Lyn Kinase Assay. Conditions: test concentration of 2 μM. The method, then: A mixture of a 10× kinase buffer (500 mM MOPS at pH 7.5, 1 mM EGTA, 1 mM Sodium Vanadate, 1% β-mercaptoethanol and 100 mM Magnesium Acetate), ATP (5 μM final from a 10 mM stock), polyGluTyr (0.1 mg/mL final from a 1 mg/mL stock), γ-^33P ATP (10 μCl/μL stock) and water (for a total of 20 μL/well) was added to each well of a Streptavidin Flashplate.
Test compound in 100% DMSO (0.5 μL) was added to the appropriate wells. Diluted Lyn kinase (human)(Accession Number EMBL M16038) (Upstate Biotechnology, Lake Placid, N.Y.) (diluted in a buffer consisting of 50 mM Tris at pH 7.5, 0.1 mM EGTA, Sodium Vanadate (0.1 mM), β-mercaptoethanol (0.1%) and 1 mg/mL bovine serum albumin) (2.5 μL) was added to the wells to initiate the reactions.
The reaction plates were incubated at 30° C. for 40 min. The reaction was terminated by the addition of a 3% phosphoric acid solution (5 μL). The reaction product (10 μL) was spotted onto a P30 filtermat and washed for 5 minutes in phosphoric acid (75 mM). The wash sequence was repeated two more times, followed with one final wash in methanol. The plates were then dried, sealed and read on the TopCount scintillation counter after adding 30 μL scintillation fluid.
The Lyn inhibition values were derived according to the procedure described in Example 164 and are shown as percent in Table 3 at a test concentration of 2 μM. For those compounds with an IC50, the IC50 value in μM is shown in parentheses. For compounds with multiple test values, each value represents a separate assay result.

In another test the target is T4, HER-2 (Homo sapiens, UniProt P04626).
T4 construct: His6 with thrombin site (N); purchased Proqinase (Freiburg, Germany)
T4 sequence (P04626 679-1255): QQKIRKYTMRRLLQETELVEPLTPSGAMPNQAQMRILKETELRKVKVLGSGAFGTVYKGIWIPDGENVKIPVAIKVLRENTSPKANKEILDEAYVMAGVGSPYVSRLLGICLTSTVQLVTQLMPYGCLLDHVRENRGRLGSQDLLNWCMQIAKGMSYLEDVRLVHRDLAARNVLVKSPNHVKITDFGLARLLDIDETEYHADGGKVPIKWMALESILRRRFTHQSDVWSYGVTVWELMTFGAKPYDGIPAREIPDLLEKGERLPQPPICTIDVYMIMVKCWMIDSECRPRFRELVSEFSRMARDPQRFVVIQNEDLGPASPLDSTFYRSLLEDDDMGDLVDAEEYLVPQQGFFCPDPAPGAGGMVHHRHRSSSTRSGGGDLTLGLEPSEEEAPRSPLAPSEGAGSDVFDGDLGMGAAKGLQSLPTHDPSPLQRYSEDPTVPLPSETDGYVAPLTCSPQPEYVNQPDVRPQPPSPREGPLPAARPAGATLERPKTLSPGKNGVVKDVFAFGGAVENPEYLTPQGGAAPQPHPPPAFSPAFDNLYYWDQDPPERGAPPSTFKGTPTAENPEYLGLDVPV
Nature of the test: HER-2 Kinase Assay. Conditions: for inhibition at 1 µM: test concentration of 1 μM; for IC50: value in parentheses. Put shortly: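 GST/HIS6-tagged HER-2 aa 679–1255 kinase with biotinylated polyGluTyr (1.5 ng/μL), 1 μM ATP plus γ-33P-ATP, Mg2+/Mn2+, DTT, Hepes pH 7.5; 1 h at 30 °C. Substrate phosphorylation captured on streptavidin scintillation plates after EDTA/PBS washes; values are % inhibition at 1 μM or IC50.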

T2 sequence (P12931 whole entry): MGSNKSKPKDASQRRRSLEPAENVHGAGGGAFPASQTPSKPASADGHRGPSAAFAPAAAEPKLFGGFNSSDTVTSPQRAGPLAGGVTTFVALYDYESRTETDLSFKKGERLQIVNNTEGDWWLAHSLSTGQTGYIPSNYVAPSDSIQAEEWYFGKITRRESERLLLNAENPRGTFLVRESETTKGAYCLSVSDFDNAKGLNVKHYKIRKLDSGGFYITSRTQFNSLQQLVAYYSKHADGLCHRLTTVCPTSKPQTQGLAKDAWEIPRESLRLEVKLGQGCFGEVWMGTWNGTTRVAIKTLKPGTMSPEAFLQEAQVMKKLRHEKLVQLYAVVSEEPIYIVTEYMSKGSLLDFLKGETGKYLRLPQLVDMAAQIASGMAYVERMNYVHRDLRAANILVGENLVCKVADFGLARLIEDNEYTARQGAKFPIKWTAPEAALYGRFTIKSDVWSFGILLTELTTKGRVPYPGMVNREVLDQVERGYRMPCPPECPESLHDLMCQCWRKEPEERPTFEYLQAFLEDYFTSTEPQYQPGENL

On to `COc1ccc(Cl)c(N2C(=O)Nc3c(C(=O)O)sc4ncnc2c34)c1` [Cpd 47, 5-(2-chloro-5-methoxy-phenyl)-4-oxo-4,5-dihydro-3H-1-thia-3,5,6,8-tetraaza-acenaphthylene-2-carboxylic acid], for which the inhibition at 2 µM on EGFR is 5%; against c-Src kinase (human), 9%; against Lyn kinase (human), 28%. Further, the inhibition at 1 µM against HER-2 was -28%.
Turning to `O=C(Nc1ccc(CN2CCOCC2)cc1)c1sc2ncnc3c2c1NC(=O)N3c1ccc(Cc2ccccc2)cc1` [Cpd 165, 5-(4-benzyl-phenyl)-4-oxo-4,5-dihydro-3H-1-thia-3,5,6,8-tetraaza-acenaphthylene-2-carboxylic acid (4-morpholin-4-ylmethyl-phenyl)-amide], the IC50 against EGFR worked out at 0.023 µM; at HER-2, 0.157 µM. The inhibition at 2 µM came to 29% against c-Src kinase (human) and 39% against Lyn kinase (human).
As to `O=C(Nc1ccc(CCN2CCCCC2)cc1)c1sc2ncnc3c2c1NC(=O)N3c1ccc(Oc2cccc(F)c2)cc1` [Cpd 132, 5-[4-(3-fluoro-phenoxy)-phenyl]-4-oxo-4,5-dihydro-3H-1-thia-3,5,6,8-tetraaza-acenaphthylene-2-carboxylic acid [4-(2-piperidin-1-yl-ethyl)-phenyl]-amide], the results for the IC50 on EGFR and at HER-2 were 0.015 µM and 0.495 µM, respectively. The inhibition at 2 µM at c-Src kinase (human) came to 32%; against Lyn kinase (human), 33%. Moreover, the inhibition at 1 µM against HER-2 came out at 76%.
On to `COc1cc(N2C(=O)Nc3c(C(=O)Nc4ccc(CN5CCCCC5)cc4)sc4ncnc2c34)c(Cl)cc1Cl` [Cpd 33, 5-(2,4-dichloro-5-methoxy-phenyl)-4-oxo-4,5-dihydro-3H-1-thia-3,5,6,8-tetraaza-acenaphthylene-2-carboxylic acid (4-piperidin-1-ylmethyl-phenyl)-amide], for which half-maximal inhibition on EGFR (IC50) required 1.89 µM. Besides, the values for the inhibition at 2 µM at c-Src kinase (human) and against Lyn kinase (human) were 32% and 36%, respectively. The inhibition at 1 µM at HER-2 is 14%.
For the compound `O=C(O)c1sc2ncnc3c2c1NC(=O)N3c1ccc(Oc2ccccc2)c(F)c1` [Cpd 112, 5-(3-fluoro-4-phenoxy-phenyl)-4-oxo-4,5-dihydro-3H-1-thia-3,5,6,8-tetraaza-acenaphthylene-2-carboxylic acid], the half-inhibitory concentration (IC50) against EGFR stood at 1.03 µM; at HER-2, 5.06 µM. Moreover, the inhibition at 2 µM was -16% against c-Src kinase (human) and 30% on Lyn kinase (human).
Turning to `O=C(O)c1sc2ncnc3c2c1NC(=O)N3c1cc(OCc2cccc(F)c2)c(Cl)cc1Cl` [Cpd 58, 5-[2,4-dichloro-5-(3-fluoro-benzyloxy)-phenyl]-4-oxo-4,5-dihydro-3H-1-thia-3,5,6,8-tetraaza-acenaphthylene-2-carboxylic acid], the results for the inhibition at 2 µM on EGFR, against c-Src kinase (human) and against Lyn kinase (human) were 16%, -48% and 6%, respectively. Moreover, at HER-2, the inhibition at 1 µM is -27%.
As for `CN1CCN(Cc2ccc(NC(=O)c3sc4ncnc5c4c3NC(=O)N5c3cc(OCc4cccc(F)c4)c(Cl)cc3Cl)cc2)CC1` [Cpd 61, 5-[2,4-dichloro-5-(3-fluoro-benzyloxy)-phenyl]-4-oxo-4,5-dihydro-3H-1-thia-3,5,6,8-tetraaza-acenaphthylene-2-carboxylic acid [4-(4-methyl-piperazin-1-ylmethyl)-phenyl]-amide], the results for the inhibition at 2 µM on EGFR, against c-Src kinase (human) and at Lyn kinase (human) were 9%, -2% and 30%, respectively. Further, at HER-2, the inhibition at 1 µM is -11%.
Turning to `CN(Cc1ccc(NC(=O)c2sc3ncnc4c3c2NC(=O)N4c2cc(OCc3cccc(F)c3)c(Cl)cc2Cl)cc1)C[C@H]1CCCO1` [Cpd 59, 5-[2,4-dichloro-5-(3-fluoro-benzyloxy)-phenyl]-4-oxo-4,5-dihydro-3H-1-thia-3,5,6,8-tetraaza-acenaphthylene-2-carboxylic acid [4-({methyl-[(2R)-tetrahydro-furan-2-ylmethyl]-amino}-methyl)-phenyl]-amide], the results for the inhibition at 2 µM at EGFR, at c-Src kinase (human) and on Lyn kinase (human) were 20%, -13% and 8%, respectively. At HER-2, the inhibition at 1 µM is -18%.
Consider `O=C(Nc1ccc(CN2CCOCC2)cc1)c1sc2ncnc3c2c1NC(=O)N3c1ccc(Oc2ccccc2)c(Cl)c1` [Cpd 138, 5-(3-chloro-4-phenoxy-phenyl)-4-oxo-4,5-dihydro-3H-1-thia-3,5,6,8-tetraaza-acenaphthylene-2-carboxylic acid (4-morpholin-4-ylmethyl-phenyl)-amide], for which the values for the IC50 at EGFR and at HER-2 were 0.059 µM and 0.178 µM, respectively. For the same compound, the values for the inhibition at 2 µM on c-Src kinase (human) and against Lyn kinase (human) were 39% and 50%, respectively.
With `O=C(Nc1ccc(CN2CCOCC2)cc1)c1sc2ncnc3c2c1NC(=O)N3c1ccc(Oc2cccc(F)c2)cc1` [Cpd 134, 5-[4-(3-fluoro-phenoxy)-phenyl]-4-oxo-4,5-dihydro-3H-1-thia-3,5,6,8-tetraaza-acenaphthylene-2-carboxylic acid (4-morpholin-4-ylmethyl-phenyl)-amide], the IC50 worked out at 0.021 µM against EGFR and 0.087 µM at HER-2. The inhibition at 2 µM against c-Src kinase (human) came out at 49%; against Lyn kinase (human), 48%. At HER-2, the inhibition at 1 µM was found to be 35%.
For the compound `O=C(Nc1ccc(CN2CCOCC2)cc1)c1sc2ncnc3c2c1NC(=O)N3c1ccc(F)c(Br)c1` [Cpd 153, 5-(3-bromo-4-fluoro-phenyl)-4-oxo-4,5-dihydro-3H-1-thia-3,5,6,8-tetraaza-acenaphthylene-2-carboxylic acid (4-morpholin-4-ylmethyl-phenyl)-amide], the results for the IC50 at EGFR and at HER-2 were 0.159 µM and 0.294 µM, respectively. The inhibition at 2 µM against c-Src kinase (human) was 16%; on Lyn kinase (human), -4%. In addition, the inhibition at 1 µM at HER-2 worked out at 70%.
On to `CC(C)(C)OC(=O)N1CCC(NC(=O)c2sc3ncnc4c3c2NC(=O)N4c2ccc(N3CCOCC3)cc2)CC1` [Cpd 126, 4-{[5-(4-morpholin-4-yl-phenyl)-4-oxo-4,5-dihydro-3H-1-thia-3,5,6,8-tetraaza-acenaphthylene-2-carbonyl]-amino}-piperidine-1-carboxylic acid tert-butyl ester], for which the inhibition at 2 µM was 3% on EGFR, -4% on c-Src kinase (human) and 19% against Lyn kinase (human). Also, the IC50 at HER-2 is over 100 µM.
Compound `COc1cc(NC(=O)c2sc3ncnc4c3c2NC(=O)N4c2cc(OC)c(OC)c(OC)c2)ccc1OCC1CCCCO1` (stereo not shown) [Cpd 31, 5-(3,4,5-trimethoxy-phenyl)-4-oxo-4,5-dihydro-3H-1-thia-3,5,6,8-tetraaza-acenaphthylene-2-carboxylic acid [3-methoxy-4-(tetrahydro-pyran-2-ylmethoxy)-phenyl]-amide] showed an IC50 at EGFR of 42.7 µM. Besides, the figures for the inhibition at 2 µM on c-Src kinase (human) and on Lyn kinase (human) were 8% and -7%, respectively. Also, the inhibition at 1 µM on HER-2 was found to be 1%.
